Source: ChEMBL document CHEMBL1275457, “Postantibiotic effects and bactericidal activities of levofloxacin and gatifloxacin at concentrations simulating those of topical ophthalmic administration against fluoroquinolone-resistant and fluoroquinolone-sensitive methicillin-resistant Staphylococcus aureus strains” (2008)
In brackets after ≈: the same amount, converted by molar mass. Activity calls are given as the source filed them. The rule behind the calls is not given here.

How the values were obtained:
[1] = system: Staphylococcus aureus; assay: Antimicrobial activity against high level levofloxacin and methicillin-resistant Staphylococcus aureus JCSC 6763 expressing gyrA Ser84Leu/Ser85Pro and grlA Ser80Phe/Glu84Lys mutants by broth microdilution method; assay type: functional
[2] = system: Staphylococcus aureus; assay: Antimicrobial activity against high level levofloxacin and methicillin-resistant Staphylococcus aureus JCSC 6764 expressing gyrA Ser84Leu, gyrB Asp437Glu norA T389C and grlA Ser80Phe/Glu84Lys mutants by broth microdilution method; assay type: functional
[3] = system: Staphylococcus aureus; assay: Antimicrobial activity against high level levofloxacin and methicillin-resistant Staphylococcus aureus JCSC 6765 expressing gyrA Ser84Leu, norA T389C and grlA Ser80Phe/Glu84Lys mutants by broth microdilution method; assay type: functional
[4] = system: Staphylococcus aureus; assay: Antimicrobial activity against low level levofloxacin and methicillin-resistant Staphylococcus aureus JCSC 6766 expressing gyrA Glu84Lys and grlA Ser80Phe mutants by broth microdilution method; assay type: functional
[5] = system: Staphylococcus aureus; assay: Antimicrobial activity against low level levofloxacin and methicillin-resistant Staphylococcus aureus JCSC 6767 expressing gyrA Glu84Lys and grlA Ser80Phe mutants by broth microdilution method; assay type: functional
[6] = system: Staphylococcus aureus; assay: Antimicrobial activity against low level levofloxacin and methicillin-resistant Staphylococcus aureus JCSC 6768 expressing gyrA Glu84Lys and grlA Ser80Phe mutants by broth microdilution method; assay type: functional
[7] = system: Staphylococcus aureus; assay: Antimicrobial activity against levofloxacin-sensitive and methicillin-resistant Staphylococcus aureus JCSC 6769 by broth microdilution method; assay type: functional
[8] = system: Staphylococcus aureus; assay: Antimicrobial activity against levofloxacin-sensitive and methicillin-resistant Staphylococcus aureus JCSC 6770 by broth microdilution method; assay type: functional
[9] = system: Staphylococcus aureus; assay: Antimicrobial activity against levofloxacin-sensitive and methicillin-resistant Staphylococcus aureus JCSC 6822 harboring mutation in norA gene by broth microdilution method; assay type: functional
[10] = system: Staphylococcus aureus; assay: Bactericidal activity against methicillin-resistant Staphylococcus aureus at 4 times MIC upto 60 mins by time-kill assay; assay type: functional, organism-based
[11] = system: Staphylococcus aureus; assay: Bactericidal activity against methicillin-resistant Staphylococcus aureus at 8 times MIC upto 60 mins by time-kill assay; assay type: functional, organism-based
[12] = system: Staphylococcus aureus; assay: Bactericidal activity against methicillin-resistant Staphylococcus aureus at 16 times MIC upto 60 mins by time-kill assay; assay type: functional, organism-based
[13] = system: Staphylococcus aureus; assay: Bactericidal activity against low level levofloxacin and methicillin-resistant Staphylococcus aureus at 4 times MIC after 120 mins by time-kill assay; assay type: functional, organism-based
[14] = system: Staphylococcus aureus; assay: Bactericidal activity against low level levofloxacin and methicillin-resistant Staphylococcus aureus at 8 times MIC after 120 mins by time-kill assay; assay type: functional, organism-based
[15] = system: Staphylococcus aureus; assay: Bactericidal activity against low level levofloxacin and methicillin-resistant Staphylococcus aureus at 16 times MIC after 120 mins by time-kill assay; assay type: functional, organism-based
[16] = system: Staphylococcus aureus; assay: Bactericidal activity against low level levofloxacin and methicillin-resistant Staphylococcus aureus at 4 times MIC after 24 hrs by time-kill assay; assay type: functional, organism-based
[17] = system: Staphylococcus aureus; assay: Bactericidal activity against high level levofloxacin and methicillin-resistant Staphylococcus aureus at 4 times MIC after 24 hrs by time-kill assay; assay type: functional, organism-based
[18] = system: Staphylococcus aureus; assay: Bactericidal activity against levofloxacin-sensitive and methicillin-resistant Staphylococcus aureus at 4 times MIC after 24 hrs by time-kill assay; assay type: functional, organism-based
[19] = system: Staphylococcus aureus; assay: Bactericidal activity against low level levofloxacin and methicillin-resistant Staphylococcus aureus at 8 times MIC after 24 hrs by time-kill assay; assay type: functional, organism-based
[20] = system: Staphylococcus aureus; assay: Bactericidal activity against high level levofloxacin and methicillin-resistant Staphylococcus aureus at 8 times MIC after 24 hrs by time-kill assay; assay type: functional, organism-based
[21] = system: Staphylococcus aureus; assay: Bactericidal activity against levofloxacin-sensitive and methicillin-resistant Staphylococcus aureus at 8 times MIC after 24 hrs by time-kill assay; assay type: functional, organism-based
[22] = system: Staphylococcus aureus; assay: Bactericidal activity against low level levofloxacin and methicillin-resistant Staphylococcus aureus at 16 times MIC after 24 hrs by time-kill assay; assay type: functional, organism-based
[23] = system: Staphylococcus aureus; assay: Bactericidal activity against high level levofloxacin and methicillin-resistant Staphylococcus aureus at 16 times MIC after 24 hrs by time-kill assay; assay type: functional, organism-based
[24] = system: Staphylococcus aureus; assay: Bactericidal activity against levofloxacin-sensitive and methicillin-resistant Staphylococcus aureus at 16 times MIC after 24 hrs by time-kill assay; assay type: functional, organism-based
[25] = system: Staphylococcus aureus; assay: Bactericidal activity against low level levofloxacin and methicillin-resistant Staphylococcus aureus at 2048 ug/ml after 24 hrs by time-kill assay; assay type: functional, organism-based
[26] = system: Staphylococcus aureus; assay: Bactericidal activity against high level levofloxacin and methicillin-resistant Staphylococcus aureus at 2048 ug/ml after 24 hrs by time-kill assay; assay type: functional, organism-based
[27] = system: Staphylococcus aureus; assay: Bactericidal activity against levofloxacin-sensitive and methicillin-resistant Staphylococcus aureus at 2048 ug/ml after 24 hrs by time-kill assay; assay type: functional, organism-based

COc1c(N2CCNC(C)C2)c(F)cc2c(=O)c(C(=O)O)cn(C3CC3)c12 (stereo not given) [GATIFLOXACIN]
MIC [1]: 128 µg/mL (≈ 341 µM) | MIC [2]: 32 µg/mL (≈ 85.2 µM) | MIC [3]: 16 µg/mL (≈ 42.6 µM) | MIC [4]: 2 µg/mL (≈ 5.33 µM) | MIC [5]: 2 µg/mL (≈ 5.33 µM) | MIC [6]: 2 µg/mL (≈ 5.33 µM) | MIC [7]: 0.125 µg/mL (≈ 0.333 µM) | MIC [8]: 0.125 µg/mL (≈ 0.333 µM) | MIC [9]: 0.125 µg/mL (≈ 0.333 µM) | Activity [10]: inactive | Activity [11]: inactive | Activity [12]: inactive | Activity [13]: Active | Activity [14]: Active | Activity [15]: Active | Activity [16]: Active | Activity [17]: Active | Activity [18]: Active | Activity [19]: Active | Activity [20]: Active | Activity [21]: Active | Activity [22]: Active | Activity [23]: Active | Activity [24]: Active | Activity [25]: Active | Activity [26]: Active | Activity [27]: Active

C[C@H]1COc2c(N3CCN(C)CC3)c(F)cc3c(=O)c(C(=O)O)cn1c23.C[C@H]1COc2c(N3CCN(C)CC3)c(F)cc3c(=O)c(C(=O)O)cn1c23.O [LEVOFLOXACIN]
MIC [1]: 512 µg/mL | MIC [2]: 256 µg/mL | MIC [3]: 64 µg/mL | MIC [4]: 8 µg/mL | MIC [5]: 8 µg/mL | MIC [6]: 4 µg/mL | MIC [7]: 0.5 µg/mL | MIC [8]: 0.25 µg/mL | MIC [9]: 0.25 µg/mL | Activity [10]: inactive | Activity [11]: inactive | Activity [12]: inactive | Activity [16]: Active | Activity [17]: Active | Activity [18]: Active | Activity [19]: Active | Activity [20]: Active | Activity [21]: Active | Activity [22]: Active | Activity [23]: Active | Activity [24]: Active | Activity [25]: Active | Activity [26]: Active | Activity [27]: Active

Cc1onc(-c2ccccc2)c1C(=O)N[C@@H]1C(=O)N2[C@@H]1SC(C)(C)[C@@H]2C(=O)O [OXACILLIN]
MIC [1]: 512 µg/mL (≈ 1280 µM) | MIC [2]: 512 µg/mL (≈ 1280 µM) | MIC [3]: 256 µg/mL (≈ 638 µM) | MIC [4]: 512 µg/mL (≈ 1280 µM) | MIC [5]: 256 µg/mL (≈ 638 µM) | MIC [6]: 256 µg/mL (≈ 638 µM) | MIC [7]: 512 µg/mL (≈ 1280 µM) | MIC [8]: 256 µg/mL (≈ 638 µM) | MIC [9]: 128 µg/mL (≈ 319 µM)
